Earlier results on one sequence are cited in patent publication US9168307B2, “Mitochondrial-targeted cationic nanoparticles comprising CaMKII inhibitors and uses thereof for treating and preventing diseases and disorders associated with CaMKII activity” (University of Iowa Research Foundation, priority 2012, dated 2015).

pIC50: −log10 of the molar value.

As usually defined, the pIC50 is the IC50 on a negative log10 scale, so that one unit is a factor of ten.

The test system of this series is CaMKII. As to conditions: starting point for dose response curve.

With “KRPPKLGQIGRAKRVVIEDDR (SEQ ID NO:1) [peptide]”, the pIC50 is 7.00.
